# Results from patent publication US6043228A, “O^6 -substituted guanine derivatives, a process for their preparation and their use in treating tumor cells” (Cancer Research Campaign Technology Limited, priority 1993, dated 2000).
# Like-named read-outs stand apart in the source and are kept apart here.
# Columns and labels:
# Assay type in all cases: cell-based
# [1] = target: T1, ATase in Raji cells (Homo sapiens, UniProt P16455); test: Inactivation of ATase activity in mammalian cells: Raji
# T1 construct: endogenous in cells; host or cells: Raji
# T1 sequence (P16455 1-207): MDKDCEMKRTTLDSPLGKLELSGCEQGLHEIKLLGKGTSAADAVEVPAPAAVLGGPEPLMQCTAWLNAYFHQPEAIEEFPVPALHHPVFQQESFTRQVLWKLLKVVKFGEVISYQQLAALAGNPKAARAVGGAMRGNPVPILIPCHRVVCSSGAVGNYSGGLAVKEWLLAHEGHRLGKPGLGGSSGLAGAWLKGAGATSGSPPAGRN
# Protocol: (§1) Mammalian cells were cultured under standard conditions. For example, Raji (a human lymphoblastoid cell line from a Burkitt's lymphoma) cells were grown in suspension culture in RPMI medium supplemented with 10% horse serum. A375M cells are human melanoma cells from which the xenografts described below were established following subcutaneous injection into nude mice: WiDr cells are a human colon carcinoma cell line: Hamster+120 cells are a mitozolomide-selected subline of a Chinese hamster lung fibroblast V79 cell line called RJKO: Yoshida cells are a rat carcinosarcoma cell line and YRbus is a busulphan resistant subline thereof: XP cells are an SV40-transformed fibroblast cell line originally from the skin of a Xeroderma piamentosum patient, pHMGhAT2b cells are a clone of these cells that have been transfected with a mammalian cell expression vector containing the human ATase cDNA and pHMGla cells are a clone that have been transfected with the expression vector only (i.e. one not containing the human ATase cDNA). Cell pellets were resuspended in cold (4° C.) buffer I containing 2 μg/ml leupeptin and sonicated for 10 seconds at 12μ peak to peak distance. After cooling in ice, the cells were sonicated for a further 10 seconds at 18μ. […]
# [2] = target: T2, ATase in WiDr cells (Homo sapiens, UniProt P16455); test: Inactivation of ATase activity in mammalian cells: WiDr; conditions: read-out: Inactivation of ATase in Mammalian Cells I50
# T2 construct: WiDr cells are a human colon carcinoma cell line; endogenous in cells; host or cells: WiDr
# T2 sequence (P16455 1-207): T1 sequence (P16455 1-207)
# Protocol: as §1
# [3] = tested on: ATase; test: Inactivation of ATase in mammalian cells, summary over human, rat and Chinese hamster cell lines; conditions: Table 5
# Protocol: Mammalian cells were cultured under standard conditions. For example, Raji (a human lymphoblastoid cell line from a Burkitt's lymphoma) cells were grown in suspension culture in RPMI medium supplemented with 10% horse serum. […]
# Cells were diluted to 10^6 /ml in culture medium containing either the appropriate concentration of inactivator or an equivalent volume of vehicle (DMSO). […] ATase activity was determined as described above, in duplicate sonicated cell extracts and expressed as the, percentage activity remaining based on that present in the untreated controls (for example 350-450 fm/mg in Raji cells).
compound,measurement,setting,value
"Nc1nc(OCc2cccs2)c2nc[nH]c2n1 [B.4205, 0^6 -thenylguanine]",IC50,"[1]; Table 4, Raji cells, 2 hours at 37° C., read-out: Raji I50",20 nM
same,IC50,"[1]; Table 5, Human Raji, read-out: Inactivation of ATase in Mammalian Cells I50",20 nM
same,IC50,[2],20 nM
same,effectiveness relative to BeG in the cell lines used,[3],up to 7 times
